Measured values as given in ChEMBL document CHEMBL1127108, “Synthesis of ecdysteroid inhibitors of ecdysone biosynthesis. Inhibition of the C-25 hydroxylation” (1993).

What was measured:
Locusta migratoria [1] = experiment: In vitro inhibitory activity of compound on ecdysone biosynthesis in larval prothoracic glands of Locusta migratoria at 10e-5 M concentration; assay type: functional
Locusta migratoria [2] = experiment: In vitro inhibitory activity of compound on ecdysone biosynthesis in larval prothoracic glands of Locusta migratoria; NI: No inhibition was observed; assay type: functional

SMILES | inhibition at 10 µM (Locusta migratoria [1]) [%] | inhibition (Locusta migratoria [2])
C#CC[C@@H](O)C(C)C1CC[C@H]2[C@@H]3CC=C4C[C@@H](O)CC[C@]4(C)[C@H]3CC[C@]12C (stereo not given in full) | 36 | –
CC(C1CCC2C3CC=C4C[C@@H](O)CC[C@]4(C)C3CC[C@@]21C)[C@@H](O)C#C[Si](C)(C)C (stereo not given in full) | – | No inhibition
C#CC[C@@H](O)C(C)C1CCC2C3CC=C4C[C@@H](O)CC[C@]4(C)C3CC[C@@]21C (stereo not given in full) | 66 | –
C#CC[C@H](O)C(C)C1CC[C@H]2[C@@H]3CC=C4C[C@@H](O)CC[C@]4(C)[C@H]3CC[C@]12C (stereo not given in full) | 37 | –
C#C[C@H](O)C(C)C1CCC2C3CC=C4C[C@@H](O)CC[C@]4(C)C3CC[C@@]21C (stereo not given in full) | 36 | –
